In general, solubility refers to the dissolved amount per volume that the medium holds.

For data set [1] the following is noted: cited from earlier work.
A short description of data set [2]: physchem. The settings on record: for solubility: organic solvent or mixture. The text has this: In one or more embodiments, the foamable composition includes a potent solvent, in addition to or in place of one of the hydrophobic solvents, polar solvents or emollients of the composition. A potent solvent is a solvent other than mineral oil that solubilizes a specific active agent substantially better than a hydrocarbon solvent such as mineral oil or petrolatum.
In one or more embodiments, the composition includes at least one active agent in a therapeutically effective concentration; and at least one potent solvent in a sufficient amount to substantially solubilize the at least one active agent in the composition. […] In one or more embodiments, the concentration of the at least one potent solvent is more than about 40% of the at least one solvent of the composition; or even more than about 60%.

In brackets after ≈: the same amount, converted by molar mass. Read-outs that look alike come from different tables or passages of the source.

Turning to `C=C1/C(=C\C=C2/CCC[C@]3(C)[C@@H]([C@H](C)/C=C/[C@@H](O)C4CC4)CC[C@@H]23)C[C@@H](O)C[C@@H]1O` [calcipotriol], the solubility in water in data set [1] is 0.6 µg/mL (≈ 0.00145 mM).
For the molecule `CCCC(=O)O[C@]1(C(=O)CO)CC[C@H]2[C@@H]3CCC4=CC(=O)CC[C@]4(C)[C@H]3[C@@H](O)C[C@@]21C` [Hydrocortisone butyrate], in data set [2], the Solubility in glycofurol result is “more than 1%” and the “Solubility in mineral oil” value is on record as less than 0.01%.
For `CCC(=O)O[C@]1(C(=O)CCl)[C@@H](C)C[C@H]2[C@@H]3CCC4=CC(=O)C=C[C@]4(C)[C@@]3(F)[C@@H](O)C[C@@]21C` [clobestol proprionate], the “degree of solubility in water or petrolatum or the composition” value in data set [1] (in words) is “practically insoluble”.
As for `CCCCC(=O)O[C@]1(C(=O)CO)[C@@H](C)C[C@H]2[C@@H]3CCC4=CC(=O)C=C[C@]4(C)[C@@]3(F)[C@@H](O)C[C@@]21C` [Betamethasone valerate], the solubility in water result in data set [1] (in words) is “practically insoluble”. For the same molecule, in data set [2], the Solubility in glycofurol result is given as “more than 1%” and the “Solubility in mineral oil” value is on record as less than 0.01%.
On to `Cc1ncc([N+](=O)[O-])n1CCO` [Metronidazole], for which, in data set [2], the “Solubility in dimethyl isosorbide” value is recorded as “more than 1%” and the “Solubility in mineral oil” value was less than 0.01%.
Consider `C/C(=C\C(=O)OCCCCCCCCC(=O)O)C[C@@H]1OC[C@H](C[C@@H]2O[C@H]2[C@@H](C)[C@H](C)O)[C@@H](O)[C@H]1O` [Mupirocin], for which, in data set [2], the “Solubility in dimethyl isosorbide” value is reported as “more than 1%”, the Solubility in glycofurol result is recorded as “more than 1%”, the “Solubility in mineral oil” value is less than 0.01% and the “Solubility in polyethylene glycol 400 (PEG 400)” value is reported as “more than 1%”. Also, the “Solubility in propylene glycol” value in data set [2] was “more than 1%”.
For the molecule `Cc1cnc(NC(=O)C2=C(O)c3ccccc3S(=O)(=O)N2C)s1` [Meloxicam], the “Solubility in mineral oil” value in data set [2] is recorded as less than 0.001%. Further, the figures for the solubility in data set [2] (Solubility in PEG 400) and in data set [2] (Solubility in propylene glycol) were 3700 µg/mL (≈ 10.5 mM) and 300 µg/mL (≈ 0.854 mM), respectively.
Consider `CC(=O)[C@H]1CC[C@H]2[C@@H]3CCC4=CC(=O)CC[C@]4(C)[C@H]3CC[C@]12C` [Progesterone], for which the “Solubility in mineral oil” value in data set [2] is on record as less than 0.001%. In addition, the solubility in data set [2] (Solubility in PEG 400) came to 15300 µg/mL (≈ 48.7 mM).
As to `CC(=O)N1CCN(c2ccc(OCC3COC(Cn4ccnc4)(c4ccc(Cl)cc4Cl)O3)cc2)CC1` (stereo not drawn) [Ketoconazole], in data set [2], the “Solubility in dimethyl isosorbide” value is on record as “more than 1%”, the Solubility in glycofurol entry is “more than 1%”, the “Solubility in mineral oil” value is less than 0.01% and the “Solubility in propylene glycol” value is reported as “more than 1%”.
In the case of `C=CC[C@@H]1/C=C(\C)C[C@H](C)C[C@H](OC)[C@H]2O[C@@](O)(C(=O)C(=O)N3CCCC[C@H]3C(=O)O[C@H](/C(C)=C/[C@@H]3CC[C@@H](O)[C@H](OC)C3)[C@H](C)[C@@H](O)CC1=O)[C@H](C)C[C@@H]2OC` [tacrolimus], the solubility in water entry in data set [1] (in words) is listed as “insoluble”.
